# Measured values from patent US9505769B2 (ASCENEURON SA, priority 2013, dated 2016).
# Target: T1, human muscarinic acetylcholine M1 receptor (Homo sapiens, UniProt P11229)
# T1 construct: expressed in transfected cells; host or cells: CHO-K1
# T1 sequence (P11229 1-460): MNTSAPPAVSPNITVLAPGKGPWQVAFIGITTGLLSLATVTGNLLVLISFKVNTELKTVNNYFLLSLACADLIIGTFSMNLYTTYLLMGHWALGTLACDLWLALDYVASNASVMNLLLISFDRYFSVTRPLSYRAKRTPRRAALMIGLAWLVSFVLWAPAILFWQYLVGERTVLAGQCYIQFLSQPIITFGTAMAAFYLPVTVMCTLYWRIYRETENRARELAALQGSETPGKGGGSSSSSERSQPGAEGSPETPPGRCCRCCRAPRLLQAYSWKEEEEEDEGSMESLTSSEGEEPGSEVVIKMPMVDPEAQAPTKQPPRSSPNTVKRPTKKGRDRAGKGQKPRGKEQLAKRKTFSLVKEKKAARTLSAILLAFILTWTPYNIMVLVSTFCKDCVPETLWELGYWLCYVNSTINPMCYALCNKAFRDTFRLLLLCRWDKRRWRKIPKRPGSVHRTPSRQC
# Assay: M1 PAM Assay (IP-One HTRF, IP1 accumulation in M1-CHO cells)
# Type: cell-based
# Settings: not given
# Procedure: Then diluted compounds (0.6% DMSO final concentration) are added together with EC20 of acetylcholine and incubated with the cells for 30 min at 37° C., 5% CO2.
# CHO-K1 cells stably transfected with human muscarinic acetylcholine M1 receptor are cultured in Ham's F12 medium containing 10% heat inactivated fetal calf serum, 2 mM L-glutamine and Penicillin-Streptomycin grown in a humidified atmosphere at 5% CO2/95% air at 37° C.
row,SMILES,EC50 [µM]
1,"COCCN1[C@@H]2CC[C@H]1C[C@@H](Oc1cc(F)ccc1C(=O)N1Cc3nn4cc(Cl)cnc4c3C1)C2 [Example 52, (3-chloro-7H-pyrrolo[3′,4′:3,4]pyrazolo[1,5-a]pyrimidin-8(9H)-yl)(4-fluoro-2-{[(3-endo)-8-(2-methoxyethyl)-8-azabicyclo[3.2.1]oct-3-yl]oxy}phenyl)methanone]",0.2 to 1

# Same assay, conditions: CHO-K1 cells stably transfected with human M1 receptor; compounds added with EC20 of acetylcholine (25 nM), 30 min; intracellular IP1 by IP-One HTRF; read-out: M1 PAM EC50
row,EC50 [µM],SMILES
1,0.2 to 1,O=C(c1ccc(F)cc1OC1CCN(CCF)CC1)N1Cc2nn3cc(Cl)cnc3c2C1 [Example 34]
2,0.2 to 1,Cc1nc2c3c(nn2c(C)c1Cl)CN(C(=O)c1ccc(F)cc1O[C@H]1CCNC[C@H]1F)C3 (racemic) [Example 18]
3,0.2 to 1,"Cc1nc2c3c(nn2c(C)c1Cl)CN(C(=O)c1ccc(F)cc1O[C@H]1CN(C)C[C@@H]1O)C3 (racemic) [Example 45, (anti)-(6-Chloro-5,7-dimethyl-1H,3H-2,4,7a,8-tetraaza-cyclopenta[a]inden-2-yl)-[4-fluoro-2-(4-hydroxy-1-methyl-pyrrolidin-3-yloxy)-phenyl]-methanone]"
4,1 to 3,"Cc1nc2c3c(nn2c(C)c1Cl)CN(C(=O)c1ccc(F)cc1OCC1(N)CC1)C3 [Example 68, (2-((1-aminocyclopropyl)methoxy)-4-fluorophenyl)(3-chloro-2,4-dimethyl-7H-pyrrolo[3′,4′:3,4]pyrazolo[1,5-a]pyrimidin-8(9H)-yl)methanone]"
5,< 0.2,"Cc1nc2c3c(nn2c(C)c1Cl)CN(C(=O)c1ccc(F)cc1OC[C@H]1C[C@@H](F)CN1)C3 [Example 60, (6-Chloro-5,7-dimethyl-1H,3H-2,4,7a,8-tetraaza-cyclopenta[a]inden-2-yl)-[4-fluoro-2-((2R,4R)-4-fluoro-pyrrolidin-2-ylmethoxy)-phenyl]-methanone]"
6,0.2 to 1,"Cc1nc2c3c(nn2c(C)c1Cl)CN(C(=O)c1ccc(F)cc1OC1CCN(CC(O)C(F)(F)F)CC1)C3 (stereo not shown) [Example 75, (6-Chloro-5,7-dimethyl-1H,3H-2,4,7a,8-tetraaza-cyclopenta[a]inden-2-yl)-{4-fluoro-2-[1-(3,3,3-trifluoro-2-hydroxy-propyl)-piperidin-4-yloxy]-phenyl}-methanone]"
7,0.2 to 1,"Cc1nc2c3c(nn2c(C)c1Cl)CN(C(=O)c1ccc(Br)cc1OCCN(C)C)C3 [Example 31, (4-bromo-2-(2-(dimethylamino)ethoxy)phenyl)(3-chloro-2,4-dimethyl-7H-pyrrolo[3′,4′:3,4]pyrazolo[1,5-a]pyrimidin-8(9H)-yl)methanone]"
8,0.2 to 1,"Cc1nc2c3c(nn2c(C)c1Cl)CN(C(=O)c1ccccc1O[C@H]1CCC[C@@H]1O)C3 (racemic) [Example 8, (anti)-(6-Chloro-5,7-dimethyl-1H,3H-2,4,7a,8-tetraaza-cyclopenta[a]inden-2-yl)-[2-(2-hydroxy-cyclopentyloxy)-phenyl]-methanone]"

row,SMILES,EC50 [µM]
1,"Cc1nc2c3c(nn2c(C)c1Cl)CN(C(=O)c1ccc(F)cc1OC1CC(N(C)C)C1)C3 (stereo not shown) [Example 71, (6-Chloro-5,7-dimethyl-1H,3H-2,4,7a,8-tetraaza-cyclopenta[a]inden-2-yl)-[2-(3-dimethylamino-cyclobutoxy)-4-fluoro-phenyl]-methanone]",0.2 to 1
